The values that follow come from US20250382277A1, “SMALL MOLECULE INHIBITORS OF DYRK/CLK AND USES THEREOF” (Arizona Board of Regents on Behalf of the University of …, priority 2022, published 2025).

The target of assay [1] is T1, DYRK1A (Homo sapiens, UniProt Q13627). The experiment in a line: KdELECT Kinase Assay Panel (Eurofins) binding affinity. The note with it: read-out: DYRK1A Kd, duplicate 11-point dose-response curves.
Protocol: (§1) KDs were obtained from Eurofins. The KdELECT Kinase Assay Panel enables quantitated compound binding affinity against any kinase assay. Inhibitor binding constants (Kd values) are calculated from duplicate 11-point dose-response curves. Measurements are made under optimized conditions that generate true thermodynamic Kd values which facilitate direct comparison of inhibitor affinity across kinases.
The target of assay [2] is T1, DYRK1A. The experiment in a line: biochemical.
Protocol: as §1
Another assay deals with WNT signaling. The experiment in a line: WNT reporter assay (TopGFP reporter). Format: cell-based. The note with it: Human Colonic Epithelial Cells (HCEC) with TopGFP reporter, stimulated with 10 μM CHIR99021, 24 hours. From the text:
KDs were obtained from Eurofins.
For orientation: In a reporter assay the amount or activity of a reporter protein is the signal.

On to “1-(5-(4-(6-(2-aminopyridin-4-yl)quinazolin-4-yl)-2-fluorophenyl)hexahydropyrrolo[3,4-c]pyrrol-2(1H)-yl)ethan-1-one [Compound 46]”, for which the dissociation constant (Kd) (commonly a measure of binding affinity in units of concentration) on DYRK1A [1] is under 0.1 µM.
With `Nc1cc(-c2ccc3ncnc(-c4cnc(N5CCC(N6CCOCC6)CC5)c(F)c4)c3c2)ccn1` [Compound 19, 4-(4-(5-fluoro-6-(4-morpholinopiperidin-1-yl)pyridin-3-yl)quinazolin-6-yl)pyridin-2-amine], the dissociation constant Kd on DYRK1A [2] is under 0.1 µM. Besides, in the assay on WNT signaling, the 50% effective concentration (EC50) (usually the concentration at which the effect is half-maximal) is 0.1 to 1 µM.
The matching figures for `Nc1cc(-c2ccc3ncnc(-c4cnc(N5CCOCC5)c(F)c4)c3c2)ccn1` [Compound 11, 4-(4-(5-fluoro-6-morpholinopyridin-3-yl)quinazolin-6-yl)pyridin-2-amine]: under 0.1 µM and 0.1 to 1 µM.
The matching figures for `CC(=O)N1C[C@@H]2C[C@H]1CN2c1ccc(-c2ncnc3ccc(-c4ccnc(N)c4)cc23)cc1F` [Compound 40, 1-((1S,4S)-5-(4-(6-(2-aminopyridin-4-yl)quinazolin-4-yl)-2-fluorophenyl)-2,5-diazabicyclo[2.2.1]heptan-2-yl)ethan-1-one]: under 0.1 µM and 0.1 to 1 µM.
The matching figures for `Nc1cc(-c2ccc3nccc(-c4ccc(N5CCOCC5)c(F)c4)c3c2)ccn1` [Compound 32, 4-(4-(3-fluoro-4-morpholinophenyl)quinolin-6-yl)pyridin-2-amine]: under 0.1 µM and 0.1 to 1 µM.
`CC(C)N1CCN(c2ccc(-c3ncnc4ccc(-c5ccnc(N)c5)cc34)cc2F)CC1` [Compound 50, 4-(4-(3-fluoro-4-(4-isopropylpiperazin-1-yl)phenyl)quinazolin-6-yl)pyridin-2-amine] returned a Kd on DYRK1A [2] of under 0.1 µM. The EC50 in the assay with WNT signaling fell in the range of 0.1 to 1 µM.
Compound `Nc1cc(-c2ccc3ncnc(-c4ccc(N5C[C@@H]6C[C@H]5CO6)c(F)c4)c3c2)ccn1` [Compound 29, 4-(4-(4-((1S,4S)-2-oxa-5-azabicyclo[2.2.1]heptan-5-yl)-3-fluorophenyl)quinazolin-6-yl)pyridin-2-amine] came in with a dissociation constant (Kd) on DYRK1A [2] of under 0.1 µM. In the assay on WNT signaling, this compound came in with an EC50 of 0.1 to 1 µM.
Consider `COC(=O)N1CCN(c2ccc(-c3ncnc4ccc(-c5ccnc(N)c5)cc34)cc2F)CC1` [Compound 52, methyl 4-(4-(6-(2-aminopyridin-4-yl)quinazolin-4-yl)-2-fluorophenyl)piperazine-1-carboxylate], for which the dissociation constant (Kd) at DYRK1A [2] is under 0.1 µM. In the assay with WNT signaling, this compound gave an EC50 of under 0.1 µM.
`CN1CCN(c2ccc(-c3ncnc4ccc(-c5ccnc(N)c5)cc34)cc2F)CC1` [Compound 25, 4-(4-(3-fluoro-4-(4-methylpiperazin-1-yl)phenyl)quinazolin-6-yl)pyridin-2-amine] showed a dissociation constant Kd on DYRK1A [2] of under 0.1 µM. For the same compound, in the assay on WNT signaling, the EC50 is under 0.1 µM.
At DYRK1A [2], `Nc1cc(-c2ccc3ncnc(-c4cccc(N5CCOCC5)c4)c3c2)ccn1` [Compound 4, 4-(4-(3-morpholinophenyl)quinazolin-6-yl)pyridin-2-amine] yielded a Kd of under 0.1 µM. The compound also yielded a concentration for a half-maximal effect (EC50) in the assay with WNT signaling of over 1 µM.
On DYRK1A [2], `Nc1cc(-c2ccc3ncnc(-c4ccc(N5CCN(C6COC6)CC5)c(F)c4)c3c2)ccn1` [Compound 56, 4-(4-(3-fluoro-4-(4-(oxetan-3-yl)piperazin-1-yl)phenyl)quinazolin-6-yl)pyridin-2-amine] returned a Kd of under 0.1 µM. This compound returned a 50% effective concentration (EC50) with WNT signaling of under 0.1 µM.
In turn, `Fc1cc(-c2ncnc3ccc(-c4c[nH]c5ncccc45)cc23)cnc1N1CCNCC1` [Compound 27, 4-(5-fluoro-6-(piperazin-1-yl)pyridin-3-yl)-6-(1H-pyrrolo[2,3-b]pyridin-3-yl)quinazoline] came in with a Kd on DYRK1A [2] of under 0.1 µM. The compound further came in with an EC50 in the assay on WNT signaling of 0.1 to 1 µM.
For `CCN1CCN(c2ccc(-c3ncnc4ccc(-c5ccnc(N)c5)cc34)cc2F)CC1` [Compound 36, 4-(4-(4-(4-ethylpiperazin-1-yl)-3-fluorophenyl)quinazolin-6-yl)pyridin-2-amine], in that order: under 0.1 µM and 0.1 to 1 µM.
The matching figures for `Nc1cc(-c2ccc3ncnc(-c4ccc(N5CCN(CCO)CC5)cc4)c3c2)ccn1` [Compound 41, 2-(4-(4-(6-(2-aminopyridin-4-yl)quinazolin-4-yl)phenyl)piperazin-1-yl)ethan-1-ol]: under 0.1 µM and under 0.1 µM.
The matching figures for `Nc1cc(-c2ccc3ncnc(-c4ccc(N5CCOCC5)cc4)c3c2)ccn1` [Compound 16, 4-(4-(4-morpholinophenyl)quinazolin-6-yl)pyridin-2-amine]: under 0.1 µM and 0.1 to 1 µM.
With `CC(=O)N1C[C@@H]2C[C@H]1CN2c1ccc(-c2ncnc3ccc(-c4ccnc(N)c4)cc23)cc1` [Compound 39, 1-((1S,4S)-5-(4-(6-(2-aminopyridin-4-yl)quinazolin-4-yl)phenyl)-2,5-diazabicyclo[2.2.1]heptan-2-yl)ethan-1-one], the Kd on DYRK1A [2] is under 0.1 µM. This compound returned a 50% effective concentration (EC50) in the assay on WNT signaling of 0.1 to 1 µM.
